Like-named read-outs stand apart in the source and are kept apart here.

For 22 compounds, IC50 results are on record in patent publication US6191282A, “Substituted 5-membered ring heterocycles comprising a bicyclic or tricyclic group their preparation and their use” (Hoechst Marion Roussel, priority 1993, dated 2001).

The subject of the assay is gel-filtered human thrombocytes. As to the kind of experiment: Inhibition of the aggregation of gel-filtered human thrombocytes following stimulation with ADP or thrombin (Test method 1). The format is cell-based. The settings on record: 1 mg/ml fibrinogen, 37° C., GFP from 2-4 donors. As to the method: As a functional test, measurement is made of the inhibition of the aggregation of gel-filtered human thrombocytes, following stimulation with ADP or thrombin, by the compounds according to the invention.
For this purpose, human thrombocytes were isolated from platelet-rich plasma (PRP) by gel filtration on Sepharose 2 B. The resulting suspension of gel-filtered platelets (GFP), which contained 3×10^8 platelets/ml, was activated in the presence of 1 mg/ml of fibrinogen either with 10 μM ADP or with 0.1 U/ml thrombin, and stirred in an aggregometer (PAP 4, Biodata, Hatboro, Penna., USA) at 37° C. and at 1000 revolutions per minute. The maximum increase in the translucency is taken as a measure of the aggregation. The test substances were added to the GFP at 37° C. and 2 min before activating with ADP or thrombin.

[1] abbreviates: Homo sapiens, ADP-stimulated (10 μM ADP), read-out: IC50, inhibition of thrombocyte aggregation, ADP-stimulated.
[2] abbreviates: Homo sapiens, Thrombin-stimulated (0.1 U/ml thrombin), read-out: IC50, inhibition of thrombocyte aggregation, Thrombin-stimulated.
[3] abbreviates: ADP-stimulated (10 μM ADP), read-out: IC50, inhibition of thrombocyte aggregation, ADP-stimulated.
[4] abbreviates: Thrombin-stimulated (0.1 U/ml thrombin), read-out: IC50, inhibition of thrombocyte aggregation, Thrombin-stimulated.

A word on the IC50: it is the concentration that gives 50% inhibition. For the compound `CCCCCC(=O)NC(CNC(=O)CN1C(=O)NC(C)(c2ccc(C(=N)N)cc2)C1=O)C(=O)O` (racemic) [Example 30, (R,S)-3-(((R,S)-4-(4-(Aminoiminomethyl)phenyl)-4-methyl-2,5-dioxoimidazolidin-1-yl)acetylamino)-2-pentylcarbonylaminopropionic acid], the IC50 worked out at 500 nM under setting [1] and 400 nM under setting [2].
On the same counts, the results for `CCCCCC(=O)NC(CNC(=O)CN1C(=O)N(C)C(C)(c2ccc(C(=N)N)cc2)C1=O)C(=O)O` (racemic) [Example 31, (R,S)-3-(((R,S)-4-(4-(Aminoiminomethyl)phenyl)-3,4-dimethyl-2,5-dioxoimidazolidin-1-yl)acetylamino)-2-pentylcarbonylaminopropionic acid] are 3000 nM and 600 nM.
For the compound `CCCCS(=O)(=O)NC(CNC(=O)CN1C(=O)NC(C)(c2ccc(C(=N)N)cc2)C1=O)C(=O)O` (racemic) [Example 32, (R,S)-3-(((R,S)-4-(4-(Aminoiminomethyl)phenyl)-4-methyl-2,5-dioxoimidazolidin-1-yl)acetylamino)-2-butylsulphonylaminopropionic acid], the IC50 under setting [1] turned out to be 200 nM and the IC50 under setting [2] worked out at 150 nM.
For `CCCCS(=O)(=O)NC(CNC(=O)CN1C(=O)N(C)C(C)(c2ccc(C(=N)N)cc2)C1=O)C(=O)O` (racemic) [Example 33, (R,S)-3-(((R,S)-4-(4-(Aminoiminomethyl)phenyl)-3,4-dimethyl-2,5-dioxoimidazolidin-1-yl)acetylamino)-2-butylsulphonylaminopropionic acid] the same measures were 500 nM and 200 nM.
Turning to `CC1(c2ccc(C(=N)N)cc2)NC(=O)N(CC(=O)NC(CS(=O)(=O)NC(=O)Nc2ccccc2)C(=O)OCc2ccccc2)C1=O` (racemic) [Example 34, 2-((R,S)-4-(4-Aminoiminomethyl)phenyl)-4-methyl-2,5-dioxoimidazolidin-1-yl)-N-((R,S)-1-benzyloxycarbonyl-2-(3-phenylureidosulphonyl)ethyl)acetamide], the IC50 under setting [1] stood at 2500 nM and the IC50 under setting [2] is 1500 nM.
On the same counts, the results for `COc1ccc(C(CC(=O)O)NC(=O)CN2C(=O)NC(C)(c3ccc(C(=N)N)cc3)C2=O)cc1O` (racemic) [Example 35, (R,S)-3-(((R,S)-4-(4-(Aminoiminomethyl)phenyl)-4-methyl-2,5-dioxoimidazolidin-1-yl)acetylamino)-3-(3-hydroxy-4-methoxyphenyl)propionic acid] are 100 nM and 300 nM.
On to `COc1cc(C(CC(=O)O)NC(=O)CN2C(=O)NC(C)(c3ccc(C(=N)N)cc3)C2=O)ccc1O` (racemic) [Example 36, (R,S)-3-(((R,S)-4-(4-(Aminoiminomethyl)phenyl)-4-methyl-2,5-dioxoimidazolidin-1-yl)acetylamino)-3-(4-hydroxy-3-methoxyphenyl)propionic acid], for which the IC50 runs as follows: under setting [1], 200 nM; under setting [2], 150 nM.
On the same counts, the results for `CCOc1ccc(C(CC(=O)O)NC(=O)CN2C(=O)NC(C)(c3ccc(C(=N)N)cc3)C2=O)cc1` (racemic) [Example 37, (R,S)-3-(((R,S)-4-(4-(Aminoiminomethyl)phenyl)-4-methyl-2,5-dioxoimidazolidin-1-yl)acetylamino)-3-(4-ethoxyphenyl)propionic acid] are 100 nM and 200 nM.
On to `CC1(c2ccc(C(=N)N)cc2)NC(=O)N(CC(=O)NC(CC(=O)O)c2cccc3ccccc23)C1=O` (racemic) [Example 38, (R,S)-3-(((R,S)-4-(4-(Aminoiminomethyl)phenyl)-4-methyl-2,5-dioxoimidazolidin-1-yl)acetylamino)-3-(1-naphthyl)propionic acid], for which the IC50 by setting is: under setting [1], 300 nM; under setting [2], 350 nM.
Turning to `CC1(c2ccc(C(=N)N)cc2)NC(=O)N(CC(=O)NC(CC(=O)O)c2cccc(OCc3ccccc3)c2)C1=O` (racemic) [Example 41, (R,S)-3-(((R,S)-4-(4-(Aminoiminomethyl)phenyl)-4-methyl-2,5-dioxoimidazolidin-1-yl)acetylamino)-3-(3-benzyloxyphenyl)propionic acid], the IC50 runs as follows: under setting [1], 100 nM; under setting [2], 150 nM.
For `CC1(c2ccc(C(=N)N)cc2)NC(=O)N(CC(=O)NC(CC(=O)O)c2cccc(C(=O)O)c2)C1=O` (racemic) [Example 42, (R,S)-3-(((R,S)-4-(4-(Aminoiminomethyl)phenyl)-4-methyl-2,5-dioxoimidazolidin-1-yl)acetylamino)-3-(3-hydroxycarbonylphenyl)propionic acid] the same measures were 300 nM and 200 nM.
Turning to `CC1(c2ccc(C(=N)N)cc2)NC(=O)N(CC(=O)NC(CC(=O)O)c2cccc(Oc3ccccc3)c2)C1=O` (racemic) [Example 43, (R,S)-3-(((R,S)-4-(4-(Aminoiminomethyl)phenyl)-4-methyl-2,5-dioxoimidazolidin-1-yl)acetylamino)-3-(3-phenoxyphenyl)propionic acid], the IC50 under setting [1] came out at 500 nM and the IC50 under setting [2] turned out to be 500 nM.
For `COc1cc(C(CC(=O)O)NC(=O)CN2C(=O)NC(C)(c3ccc(C(=N)N)cc3)C2=O)cc(OC)c1OC` (racemic) [Example 44, (R,S)-3-(((R,S)-4-(4-(Aminoiminomethyl)phenyl)-4-methyl-2,5-dioxoimidazolidin-1-yl)acetylamino)-3-(3,4,5-trimethoxyphenyl)propionic acid], the IC50 under setting [1] came to 400 nM and the IC50 under setting [2] was 200 nM.
On the same counts, the results for `CC1(c2ccc(C(=N)N)cc2)NC(=O)N(CC(=O)NC(CC(=O)O)c2ccc(O)cc2)C1=O` (racemic) [Example 45, (R,S)-3-(((R,S)-4-(4-(Aminoiminomethyl)phenyl)-4-methyl-2,5-dioxoimidazolidin-1-yl)acetylamino)-3-(4-hydroxyphenyl)priopionic acid] are 200 nM and 200 nM.
In the case of `CC1(c2ccc(C(=N)N)cc2)NC(=O)N(CC(=O)NC(CC(=O)O)c2cccnc2)C1=O` (racemic) [Example 47, (R,S)-3-(((R,S)-4-(4-(Aminoiminomethyl)phenyl)-4-methyl-2,5-dioxoimidazolidin-1-yl)acetylamino)-3-(3-pyridyl)propionic acid], the IC50 under setting [1] came to 100 nM and the 50% inhibitory concentration (IC50) under setting [2] was 150 nM.
For `CC1(c2ccc(C(=N)N)cc2)NC(=O)N(CC(=O)NC(CC(=O)O)C2CCCCC2)C1=O` (racemic) [Example 49, (R,S)-3-(((R,S)-4-(4-(Aminoiminomethyl)phenyl)-4-methyl-2,5-dioxoimidazolidin-1-yl)acetylamino)-3-cyclohexylpropionic acid] the same measures were 600 nM and 200 nM.
On the same counts, the results for `CN1C(=O)N(CC(=O)NC(CC(=O)O)c2ccccc2)C(=O)C1(C)c1ccc(C(=N)N)cc1` (racemic) [Example 50, (R,S)-3-(((R,S)-4-(4-(Aminoiminomethyl)phenyl)-3,4-dimethyl-2,5-dioxoimidazolidin-1-yl)acetylamino)-3-phenylpropionic acid] are 550 nM and 400 nM.
For `CCN1C(=O)N(CC(=O)NC(CC(=O)O)c2ccccc2)C(=O)C1(C)c1ccc(C(=N)N)cc1` (racemic) [Example 52, (R,S)-3-(((R,S)-4-(4-(Aminoiminomethyl)phenyl)-3-ethyl-4-methyl-2,5-dioxoimidazolidin-1-yl)acetylamino)-3-phenylpropionic acid] the same measures were 500 nM and 400 nM.
Regarding `CC1(c2ccc(C(=N)N)cc2)NC(=O)N(CC(=O)NC(CC(=O)O)c2ccc3c(c2)OCO3)C1=O` (racemic) [Example 67, (R,S)-3-(((R,S)-4-(4-(aminoiminomethyl)phenyl)-4-methyl-2,5-dioxoimidazolidin-1-yl)acetylamino)-3-(3,4-methylenedioxyphenyl)propionic acid], the 50% inhibitory concentration (IC50) under setting [1] amounted to 80 nM and the IC50 under setting [2] is 200 nM.
Consider `CC1(c2ccc(C(=N)N)cc2)NC(=O)N(CC(=O)N[C@H](CC(=O)O)c2ccccc2)C1=O` (single isomer, unassigned) [Example 59, (R)-3-(((S or R)-4-(4-(aminoiminomethyl)phenyl)-4-methyl-2,5-dioxoimidazolidin-1-yl)acetylamino)-3-phenylpropionic acid], for which the IC50 reads like this: under setting [3], 50000 nM; under setting [4], 40000 nM.
For `CC1(c2ccc(C(=N)N)cc2)NC(=O)N(CC(=O)N[C@H](CC(=O)O)c2ccccc2)C1=O` (single isomer, unassigned) [Example 60, (R)-3-(((R or S)-4-(4-(aminoiminomethyl)phenyl)-4-methyl-2,5-dioxoimidazolidin-1-yl)acetylamino)-3-phenylpropionic acid] the same measures were 5000 nM and 4000 nM.
For `CC1(c2ccc(C(=N)N)cc2)NC(=O)N(CC(=O)NC[C@H](NC(=O)OCc2ccccc2)C(=O)O)C1=O` (stereo partly drawn) [Example 6, 3-(((R,S)-4-(4-(Aminoiminomethyl)phenyl)-4-methyl-2,5-dioxoimidazolidin-1-yl)acetylamino)-2-benzyloxycarbonylaminopropionic acid], the IC50 runs as follows: under setting [1], 2500 nM; under setting [2], 800 nM.
